# How the values were obtained:
# [1] = molecular target: Genome polyprotein (dengue virus type 2) (UniProt P29990); conditions: Thailand/16681/1984, Concentration 25.0 uM, Number of replicates 1.0
# [2] = molecular target: Genome polyprotein (dengue virus type 2) (UniProt P29990)
# [3] = Thailand/16681/1984, Concentration 100.0 uM, Number of replicates 1.0
# [4] = Thailand/16681/1984, Concentration 200.0 uM, Number of replicates 1.0
# [5] = Thailand/16681/1984, Concentration 50.0 uM, Number of replicates 1.0
# [6] = Thailand/16681/1984, Concentration 150.0 uM, Number of replicates 1.0
Compound,"inhibition [2, 3] [%]","inhibition [2, 4] [%]","inhibition [2, 5] [%]","inhibition [2, 6] [%]",also measured
CN(C)c1ccc(C=C(C#N)C(N)=O)cc1,,,,,inhibition [1]: 20.8%
N=C(N)NCCC[C@H](NC(=O)[C@H](Cc1ccc(CN)cc1)NC(=O)c1ccccc1)B(O)O,,,,,"inhibition ([2]; Thailand/16681/1984, Concentration 0.103 uM, Number of replicates 2.0, Standard deviation 1.1552277516231042 %): 13.2%; inhibition ([2]; Thailand/16681/1984, Concentration 0.309 uM, Number of replicates 2.0, Standard deviation 1.403761128919186 %): 39.2%; inhibition ([2]; Thailand/16681/1984, Concentration 0.926 uM, Number of replicates 2.0, Standard deviation 1.9316423333512027 %): 73.2%; inhibition ([2]; Thailand/16681/1984, Concentration 2.78 uM, Number of replicates 2.0, Standard deviation 0.6346068363669732 %): 91.6%; inhibition ([2]; Thailand/16681/1984, Concentration 8.33 uM, Number of replicates 2.0, Standard deviation 0.06829499639101128 %): 97.4%; inhibition ([2]; Thailand/16681/1984, Concentration 25.0 uM, Number of replicates 2.0, Standard deviation 0.08100823932985672 %): 98.5%"
c1ccc2[nH]c(CC3CCN(Cc4nccs4)CC3)nc2c1,-1.22,-8.35,,,
Cc1cc(NS(=O)(=O)c2ccc(S(=O)(=O)F)cc2)c[nH]c1=O,,,,,inhibition [1]: 19.6%
O=c1[nH]c(CSc2ccccc2Cl)nc2ccsc12,18,26,-5.28,-7.62,
O=Cc1ccc(N2CCC(C(=O)O)CC2)o1,,,,,inhibition [1]: 40.9%
O=C(NCc1nccs1)c1sccc1Cl,4.39,-1.05,0.507,-3.58,
Brc1nc(Br)n(Cc2cscn2)n1,2.39,-1.34,-6.97,-9.57,
O=c1ccc(-n2cncn2)nn1CC=Cc1ccccc1,-7,-8.49,-6.72,,
O=S(=O)(CCOc1ccccc1)c1nccs1,-2.8,,-5.02,,
Cc1c(C=O)c2ccccn2c1C#N,,,,,inhibition [1]: 30.7%
N#Cc1ccc(OCCn2nnn(-c3ccccc3)c2=O)cc1,-0.08,-2.04,-7.79,-4.33,
O=c1c2ccccc2nnn1CSc1nnc(-c2ccccc2)o1,36.2,52.5,2.98,31.6,
COc1ccc2c(O)nn(S(=O)(=O)c3ccc(C(=O)O)cc3)c2c1,5.93,-6.38,,,
Cc1nnnn1Cc1ncc(Br)s1,,-5,,,
Nc1nc(S(=O)(=O)c2ccccc2)c(Cl)s1,-1.35,,,,
O=c1c2cccn2cnn1Cc1cnc(Cl)s1,0.188,7.35,-5.2,-0.072,
O=Cc1ccc(N2CCC(C(=O)O)CC2)cc1,,,,,inhibition [1]: 47.6%
Cc1sc2nc(-c3cccs3)[nH]c(=O)c2c1C,0.922,-9.15,-5.01,,
O=c1ccn(Cc2cc(=O)n3ccccc3n2)c2ccsc12,3.86,4.39,-1.76,-8.57,
COC(=O)c1cc2scc(Br)c2[nH]1,11.7,7.72,-5.44,,

Compound,"inhibition [2, 3] [%]","inhibition [2, 4] [%]","inhibition [2, 5] [%]","inhibition [2, 6] [%]",also measured
c1ccc(C2CCN(Cc3ccc4nccnc4c3)CC2)nc1,3.52,-1.29,-8.13,-6.13,
NC(=O)c1ccc(Cn2nnc(C=Cc3ccccc3)n2)cc1,8.5,12.7,-4.9,4.33,
O=C(NCc1ccco1)c1csc(Br)c1,6.83,0.818,-4.81,,
O=C(O)c1c(Br)sc2nnsc12,-5.37,4.97,-3.57,-5.55,
N=C(N)NCCC[C@H](NC(=O)c1nccs1)C(=O)N[C@@H](CCCCN)C(=O)N[C@@H](C(N)=O)c1ccc(OCc2ccc(C(F)(F)F)cc2)cc1,,,,,"inhibition ([2]; Thailand/16681/1984, Concentration 0.309 uM, Number of replicates 2.0, Standard deviation 3.0176373786002046 %): -3.85%; inhibition ([2]; Thailand/16681/1984, Concentration 0.926 uM, Number of replicates 2.0, Standard deviation 1.4110895026482932 %): 12.5%; inhibition ([2]; Thailand/16681/1984, Concentration 2.78 uM, Number of replicates 2.0, Standard deviation 1.2681150356250568 %): 36.5%; inhibition ([2]; Thailand/16681/1984, Concentration 8.33 uM, Number of replicates 2.0, Standard deviation 1.3787183923415196 %): 69.8%; inhibition ([2]; Thailand/16681/1984, Concentration 25.0 uM, Number of replicates 2.0, Standard deviation 1.0239143117161142 %): 89.5%"
O=S(=O)(c1cccs1)N1CCN(CC=Cc2ccccc2)CC1,21.8,2.78,-7.46,-8.18,
Cc1c(C=O)c2ccccn2c1C(=O)c1ccncc1,,,,,inhibition [1]: 41.1%
O=c1ccccn1-c1ncc(Br)cn1,-4.93,1.63,-2.83,-7.63,
CCSc1nnc(SCCn2nc3ccccn3c2=O)s1,5.4,2.68,,,
COCc1nn(CC#Cc2ccc(Cl)cc2)c(=O)o1,5.18,2.77,-7.03,-4.23,
Brc1cccc2cn(Cc3ncccn3)nc12,6.27,14.4,-7.17,-8.46,
Nc1ccc2ccc(B(O)O)cc2c1,,,,,inhibition [1]: 15.2%
N#Cc1csc(CSc2nnc(C(F)(F)F)s2)n1,-9.01,,,-4.46,
O=C(O)c1sc2cccnc2c1Br,12,2.09,-8.71,,
O=S1(=O)CCN(CC#Cc2ccc3sncc3c2)CC1,-9.23,2.54,,,
O=c1oc2cccnc2n1CC=Cc1ccccc1,18.7,16.8,,-5.05,
Brc1cnn(C2CCN(Cc3csnn3)CC2)c1,5.64,5.63,-3.22,,
O=Cc1ccc(N2CCCCC2)cc1,,,,,inhibition [1]: 37.1%
Brc1ccsc1CSc1cnn[nH]1,11.3,11,-4.71,,
Cn1ncnc1Sc1nc(C2CCCC2)ns1,5.27,3.96,-3.66,-9.35,
c1nnc(SCCCSc2nncs2)s1,-7.13,-0.768,-6.11,-4.63,

Compound,"inhibition [2, 3] [%]","inhibition [2, 4] [%]","inhibition [2, 5] [%]","inhibition [2, 6] [%]",also measured
FC(F)(F)c1nnc(COc2cncnc2)s1,-9.02,-8.02,,,
Cc1nnsc1Cn1ccc(Br)n1,0.654,-4.2,-5.41,-3.97,
c1csc(-c2nnc(Sc3ncnc4sccc34)o2)c1,5.5,9.38,-7.64,1.07,
COc1nc(Cl)c(CSc2nc(C)co2)s1,2.83,12.2,,-6.96,
[O-][S@@+](Cc1ncccn1)c1ncccc1Br,2.18,-0.101,-6.39,-5.36,
O=Cc1nc(-c2ccccc2Cl)n2ccccc12,,,,,inhibition [1]: 20.2%
c1cc2sccc2c(N2CCN(Cc3ccc4cn[nH]c4c3)CC2)n1,8.61,-0.953,,,
Cn1c(Sc2nc3ccccc3o2)nc2sccc2c1=O,6.37,-0.609,-1.81,-7.45,
Cc1nc(C=O)c2ccccn12,,,,,inhibition [1]: 33.3%
Clc1snnc1CN1CCC(c2nc3ccccc3o2)CC1,2.94,8.81,-8.6,-7.28,
CC[C@H]1CO[C@H](C)CN1c1ccc(C=O)cn1,,,,,inhibition [1]: 41.1%
c1csc(CSc2nnc(Cn3cncn3)o2)c1,4.46,-3.48,,,
O=Cc1ccc(N2CCCCCC2)cc1,,,,,inhibition [1]: 32.8%
FC(F)(F)c1nc(CNCc2cocn2)cs1,1.67,-3.73,,-9.44,
C[S@@+]([O-])c1nncn1Cc1ccc(Cl)s1,0.166,-6.67,,,
O=c1c2ccccc2ncn1CCCn1cnc2ccccc2c1=O,4.08,1.74,,,
c1cc(-c2nnc(NCc3nnn[nH]3)s2)no1,-2.38,-2.02,,,
Cc1nnc(CSc2ncnc3sccc23)o1,30.9,55,8.23,40.5,
c1ccc2nc(SCc3cn4ccccc4n3)cnc2c1,10.2,30.9,-5.61,7.18,
N#Cc1ccc(S(=O)(=O)CCn2nc(-c3ccco3)oc2=O)cc1,5.55,2.14,-4.79,,
[O-][S@@+](Cc1nc(-c2cccs2)no1)c1cccs1,3.98,5.82,0.907,,

# From ChEMBL document CHEMBL5606460, “ASAP - DENV-2 NS2B-NS3 protease fluorescence single point” (2024)
